US11779530B2, “Composition for the permanent deformation of hair having reduced odor” (Noxell Corporation, priority 2016, dated 2023)

Assay: distribution coefficient log P (octanol/water) of raw materials
Type: physicochemical
Details: raw material of one-component malodor suppressant system
Excerpt: In the fields of organic and medicinal chemistry, a distribution (P) coefficient is the ratio of concentrations of a compound in the two phases of a mixture of two immiscible solvents at equilibrium. […] One of the solvents chosen is water while the second is octanol. […] The partition coefficient is the ratio of concentrations of un-ionized compound between the two solutions. The logarithm of the ratio of the concentrations of the un-ionized solute in the solvents is called log P:
[formula] The log P (octanol/water) is referred hereinafter as “log P”, unless otherwise specified.

| log P (octanol/water) | Molecule |
| --- | --- |
| 7.41 | CCCCCCCCCCCCCC(=O)OC(C)C [S1, isopropylmyristate] |
| 4.90 | Operanide [S4] |

| Molecule | log P (octanol/water) |
| --- | --- |
| CC1COCc2cc3c(cc21)C(C)(C)C(C)C3(C)C (stereo not drawn) [S3, Galaxolide] | 5.93 |
